Source: patent publication US10597388B2, “Pyridazinone herbicides” (FMC CORPORATION, priority 2014, dated 2020)

Tests used:
Type in all cases: in vivo
corn (Zea mays) = experiment: Test E greenhouse herbicide test, pre- and postemergence; conditions: Postemergence
Text: (§1) Seeds of plant species selected from corn (Zea mays), soybean (Glycine max), velvetleaf (Abutilon theophrasti), lambsquarters (Chenopodium album), wild poinsettia (Euphorbia heterophylla), pigweed, palmer (palmer pigweed, Amaranthus palmeri), waterhemp (common waterhemp, Amaranthus rudis), surinam grass (Brachiaria decumbens), crabgrass, large (large crabgrass, Digitaria sanguinalis), crabgrass, Brazilian (Brazilian crabgrass, Digitaria horizontalis), panicum, fall (fall panicum, Panicum dichotomiflorum), foxtail, giant (giant foxtail, Setaria faberii), foxtail, green (green foxtail, Setaria viridis), goosegrass (Eleusine indica), johnsongrass (Sorghum halepense), ragweed (common ragweed, Ambrosia elatior), barnyardgrass (Echinochloa crus-galli), sandbur (southem sandbur, Cenchrus echinatus), arrowleaf sida (Sida rhombifolia), Italian ryegrass (Lolium multiflorum), dayflower (Virginia (VA) dayflower, Commelina virginica), field bindweed (Convolvulus arvensis), momingglory (Ipomoea coccinea), nightshade (eastern black nightshade, Solanum ptycanthum), kochia (Kochia scoparia), nutsedge, yellow (yellow nutsedge, Cyperus esculentus), horseweed (Conyza canadensis), and beggarticks (hairy beggarticks, Bidens pilosa), were planted into a silt loam soil and treated preemergence with test chemicals formulated in a non-phytotoxic solvent mixture which included a surfactant.
(§2) At the same time, plants from these crop and weed species and also waterhemp_RES1, (ALS & Triazine resistant common waterhemp, Amaranthus rudis), and waterhemp_RES2, (ALS & HPPD resistant common waterhemp, Amaranthus rudis) were planted in pots containing Redi-Earth® planting medium (Scotts Company, 14111 Scottslawn Road, Marysville, Ohio 43041) comprising spaghnum peat moss, vermiculite, wetting agent and starter nutrients were treated with postemergence applications of test chemicals formulated in the same manner. Plants ranged in height from 2 to 18 cm for postemergence treatments (1- to 4-leaf stage). Treated plants and controls were maintained in a greenhouse for 14 to 21 d, after which time all species were compared to controls and visually evaluated. Plant response ratings, summarized in Table E, are based on a scale of 0 to 100 where 0 is no effect and 100 is complete control. A dash (-) response means no test result.

kochia (Kochia scoparia) = experiment: as above; conditions: Postemergence
Text: as §1, §2

soybean (Glycine max) = experiment: as above; conditions: Postemergence
Text: as §1, §2

[1] = test system: panicum, fall (fall panicum, Panicum dichotomiflorum); experiment: as above; conditions: Postemergence
Text: as §1, §2

[2] = test system: dayflower (Virginia (VA) dayflower, Commelina virginica); experiment: as above; conditions: Postemergence
Text: as §1, §2

[3] = test system: pigweed, palmer (palmer pigweed, Amaranthus palmeri); experiment: as above; conditions: Postemergence
Text: as §1, §2

[4] = test system: sandbur (southem sandbur, Cenchrus echinatus); experiment: as above; conditions: Postemergence
Text: as §1, §2

[5] = test system: crabgrass, Brazilian (Brazilian crabgrass, Digitaria horizontalis); experiment: as above; conditions: Postemergence
Text: as §1, §2

[6] = test system: waterhemp_RES1 (ALS & Triazine resistant common waterhemp, Amaranthus rudis); experiment: Test E greenhouse herbicide test, postemergence
Method in brief: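 Visual injury scored 0 (no effect) to 100 (complete control) versus untreated plants, 14 to 21 d after treatment in the greenhouse. Plants were treated postemergence at 1- to 4-leaf stage, 2–18 cm height, in peat-moss/vermiculite medium.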

[7] = 62 g ai/ha, scale 0 to 100 (0 no effect, 100 complete control)
[8] = 125 g ai/ha, scale 0 to 100 (0 no effect, 100 complete control)
[9] = 16 g ai/ha, visual, scale 0 no effect to 100 complete control
[10] = 31 g ai/ha, visual, scale 0 no effect to 100 complete control
[11] = 250 g ai/ha, scale 0 to 100 (0 no effect, 100 complete control)

CC(=O)Oc1c(C)nn(C)c(=O)c1-c1c(C)cc(C)c2ccccc12 [Compound 99]
Plant response rating, Corn (corn (Zea mays); [7]): 0 | Plant response rating, Corn (corn (Zea mays); [8]): 0 | Plant response rating, Corn (corn (Zea mays); [9]): 0 | Plant response rating, Corn (corn (Zea mays); [10]): 0 | Plant response rating, Kochia (kochia (Kochia scoparia); [7]): 60 | Plant response rating, Kochia (kochia (Kochia scoparia); [8]): 70 | Plant response rating, Kochia (kochia (Kochia scoparia); [9]): 55 | Plant response rating, Kochia (kochia (Kochia scoparia); [10]): 50 | Plant response rating, Soybean (soybean (Glycine max); [8]): 30 | Plant response rating, Soybean (soybean (Glycine max); [9]): 0 | Plant response rating, Soybean (soybean (Glycine max); [10]): 0 | Plant response rating, Panicum, Fall [1, 7]: 50 | Plant response rating, Panicum, Fall [1, 8]: 70 | Plant response rating, Panicum, Fall [1, 9]: 20 | Plant response rating, Panicum, Fall [1, 10]: 30 | Plant response rating, Dayflower, VA [2, 7]: 70 | Plant response rating, Dayflower, VA [2, 8]: 75 | Plant response rating, Dayflower, VA [2, 9]: 40 | Plant response rating, Dayflower, VA [2, 10]: 60 | Plant response rating, Pigweed, Palmer [3, 7]: 30 | Plant response rating, Pigweed, Palmer [3, 8]: 50 | Plant response rating, Pigweed, Palmer [3, 9]: 5 | Plant response rating, Pigweed, Palmer [3, 10]: 10 | Plant response rating, Sandbur [4, 8]: 40 | Plant response rating, Sandbur [4, 9]: 20 | Plant response rating, Sandbur [4, 10]: 30 | Plant response rating, Crabgrass, Brazil [5, 7]: 10 | Plant response rating, Crabgrass, Brazil [5, 8]: 20 | Plant response rating, Crabgrass, Brazil [5, 9]: 5 | Plant response rating, Crabgrass, Brazil [5, 10]: 10 | Plant response rating, Waterhemp_RES1 [6, 9]: 50 | Plant response rating, Waterhemp_RES1 [6, 10]: 50 | Plant response rating, Waterhemp_RES1 [6, 8]: 75

Cc1nn(C)c(=O)c(-c2cccc3ccc(Br)cc23)c1O [Compound 126]
Plant response rating, Corn (corn (Zea mays); [7]): 10 | Plant response rating, Corn (corn (Zea mays); [8]): 5 | Plant response rating, Corn (corn (Zea mays); [11]): 5 | Plant response rating, Corn (corn (Zea mays); [10]): 0 | Plant response rating, Kochia (kochia (Kochia scoparia); [7]): 100 | Plant response rating, Kochia (kochia (Kochia scoparia); [8]): 100 | Plant response rating, Kochia (kochia (Kochia scoparia); [11]): 100 | Plant response rating, Kochia (kochia (Kochia scoparia); [10]): 100 | Plant response rating, Soybean (soybean (Glycine max); [8]): 40 | Plant response rating, Soybean (soybean (Glycine max); [11]): 30 | Plant response rating, Soybean (soybean (Glycine max); [10]): 10 | Plant response rating, Panicum, Fall [1, 7]: 35 | Plant response rating, Panicum, Fall [1, 8]: 30 | Plant response rating, Panicum, Fall [1, 11]: 35 | Plant response rating, Panicum, Fall [1, 10]: 10 | Plant response rating, Dayflower, VA [2, 7]: 20 | Plant response rating, Dayflower, VA [2, 8]: 50 | Plant response rating, Dayflower, VA [2, 11]: 50 | Plant response rating, Dayflower, VA [2, 10]: 0 | Plant response rating, Pigweed, Palmer [3, 7]: 50 | Plant response rating, Pigweed, Palmer [3, 8]: 50 | Plant response rating, Pigweed, Palmer [3, 11]: 80 | Plant response rating, Pigweed, Palmer [3, 10]: 40 | Plant response rating, Sandbur [4, 8]: 40 | Plant response rating, Sandbur [4, 11]: 40 | Plant response rating, Sandbur [4, 10]: 0 | Plant response rating, Crabgrass, Brazil [5, 7]: 25 | Plant response rating, Crabgrass, Brazil [5, 8]: 40 | Plant response rating, Crabgrass, Brazil [5, 11]: 50 | Plant response rating, Crabgrass, Brazil [5, 10]: 10 | Plant response rating, Waterhemp_RES1 [6, 10]: 75 | Plant response rating, Waterhemp_RES1 [6, 8]: 90 | Plant response rating, Waterhemp_RES1 [6, 11]: 100
